Measurements as given in publication PMC12441834, “Highly Potent and Subtype-Selective Sperm-Specific Potassium Channel SLO3 Inhibitors Display High Tissue Exposure in the Murine Female Reproductive Tract” (ACS Pharmacology & Translational Science, 2025).
Values joined by “and” are separate entries in the source; they are usually repeats but may differ in a detail not shown here. Equal entries are not always repeated.

Tests used:
[1] = biological target: Serotonin (5-Hydroxytryptamine) 5-HT1A (Homo sapiens, UniProt P08908); experiment: LeadProfilingScreen radioligand binding
Histamine H1 = Histamine H1 (Homo sapiens, UniProt P35367); experiment: LeadProfilingScreen radioligand binding
[2] = biological target: Transporter, Dopamine (DAT) (Homo sapiens, UniProt Q01959); experiment: LeadProfilingScreen radioligand binding
[3] = Multispecies hepatocyte MetID; format: in vitro ADME, dog; details: 4 h incubation with hepatocytes, 10 μM
Experimental: (§1) Metabolites were identified after preincubating each compound at a 10 μM final concentration with 2.5 × 10^5 hepatocytes from human, dog, cynomolgus monkey, and rat in 200 μL of Optiincubate buffer (BioIVT, Westbury, NY). […] After centrifugation, 60 μL of the supernatant was transferred to 60 μL of water for LC-MS analysis. Samples were analyzed using a Thermo Scientific Vanquish UHPLC consisting of a VH-P10-A pump, a VH-A10-A sampler module, a VH-C10-A column compartment, and the VF-D11-A UV detector coupled to an Orbitrap Fusion Lumos instrument with UVPD. A binary solvent system consisting of (A) water with 0.1% formic acid and (B) acetonitrile with 0.1% formic acid was used with an Accucore Vanquish C18+, 2.1 mm × 100 mm, 1.5 μm, UHPLC column maintained at 40 °C. The data generated by data-dependent acquisition via normal acquisition and AcquireX were processed manually with Thermo Scientific FreeStyle and assisted by Compound Discoverer 3.3.1.111 to aid in the structural assignments.

Adenosine A1 = Adenosine A1 (Homo sapiens, UniProt P30542); experiment: LeadProfilingScreen radioligand binding
Histamine H3 = Histamine H3 (Homo sapiens, UniProt Q9Y5N1); experiment: LeadProfilingScreen radioligand binding
Rolipram = experiment: LeadProfilingScreen radioligand binding; parameters: species or system rat
Thyroid Hormone = experiment: LeadProfilingScreen radioligand binding; parameters: species or system rat
hERG potassium channel = hERG potassium channel (Homo sapiens, UniProt Q12809); experiment: LeadProfilingScreen radioligand binding; details: probe [3H]Dofetilide
[4] = biological target: Platelet Activating Factor (PAF) (Homo sapiens, UniProt P25105); experiment: LeadProfilingScreen radioligand binding
[5] = test system: Purinergic P2Y, Non-Selective; experiment: LeadProfilingScreen radioligand binding; parameters: species or system rat
Androgen (Testosterone) = Androgen (Testosterone) (Homo sapiens, UniProt P10275); experiment: LeadProfilingScreen radioligand binding
Interleukin IL-1 R1 = Interleukin IL-1 R1 (Homo sapiens, UniProt P14778); experiment: LeadProfilingScreen radioligand binding
Opiate μ (OP3, MOP) = Opiate μ (OP3, MOP) (Homo sapiens, UniProt P35372); experiment: LeadProfilingScreen radioligand binding
[6] = Multispecies hepatocyte MetID; format: in vitro ADME, rat; details: 4 h incubation with hepatocytes, 10 μM
Experimental: as §1

Adenosine A2A = Adenosine A2A (Homo sapiens, UniProt P29274); experiment: LeadProfilingScreen radioligand binding
Bradykinin B2 = Bradykinin B2 (Homo sapiens, UniProt P30411); experiment: LeadProfilingScreen radioligand binding
GABAB1A = GABAB1A (Homo sapiens, UniProt Q9UBS5); experiment: LeadProfilingScreen radioligand binding
[7] = Multispecies hepatocyte MetID; format: in vitro ADME, human; details: 4 h incubation with hepatocytes, 10 μM
Experimental: as §1

CYP2D6 = CYP2D6 (Homo sapiens, UniProt P10635); experiment: CYP450 inhibition; format: in vitro ADME; details: read-out: CYP450 Inhibition, 2D6
Phorbol Ester = experiment: LeadProfilingScreen radioligand binding; parameters: species or system mouse
Bradykinin B1 = Bradykinin B1 (Homo sapiens, UniProt P46663); experiment: LeadProfilingScreen radioligand binding
Neuropeptide Y Y2 = Neuropeptide Y Y2 (Homo sapiens, UniProt P49146); experiment: LeadProfilingScreen radioligand binding
Glucocorticoid = Glucocorticoid (Homo sapiens, UniProt P04150); experiment: LeadProfilingScreen radioligand binding
[8] = test system: Calcium Channel L-Type, Dihydropyridine; experiment: LeadProfilingScreen radioligand binding; parameters: species or system rat
Imidazoline I2, Central = experiment: LeadProfilingScreen radioligand binding; parameters: species or system rat
[9] = biological target: Nicotinic Acetylcholine α3β4 (Homo sapiens, UniProt P30926+P32297); experiment: LeadProfilingScreen radioligand binding
Tachykinin NK1 = Tachykinin NK1 (Homo sapiens, UniProt P25103); experiment: LeadProfilingScreen radioligand binding
[10] = biological target: Epidermal Growth Factor (EGF) (Homo sapiens, UniProt P00533); experiment: LeadProfilingScreen radioligand binding

Chain of Histamine H3 (Q9Y5N1 whole entry): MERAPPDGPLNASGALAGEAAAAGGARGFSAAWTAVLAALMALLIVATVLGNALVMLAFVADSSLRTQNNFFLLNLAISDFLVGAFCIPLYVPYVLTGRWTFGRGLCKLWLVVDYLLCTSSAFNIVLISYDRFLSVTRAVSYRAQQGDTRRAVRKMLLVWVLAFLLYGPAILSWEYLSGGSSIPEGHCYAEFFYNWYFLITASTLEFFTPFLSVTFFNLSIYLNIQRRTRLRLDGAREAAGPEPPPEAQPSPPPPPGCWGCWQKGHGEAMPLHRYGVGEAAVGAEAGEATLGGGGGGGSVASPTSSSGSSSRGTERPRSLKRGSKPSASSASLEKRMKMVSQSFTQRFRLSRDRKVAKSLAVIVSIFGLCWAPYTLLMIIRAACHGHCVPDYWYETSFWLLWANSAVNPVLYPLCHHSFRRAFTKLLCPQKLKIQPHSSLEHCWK
Chain of Serotonin (5-Hydroxytryptamine) 5-HT1A (P08908 whole entry): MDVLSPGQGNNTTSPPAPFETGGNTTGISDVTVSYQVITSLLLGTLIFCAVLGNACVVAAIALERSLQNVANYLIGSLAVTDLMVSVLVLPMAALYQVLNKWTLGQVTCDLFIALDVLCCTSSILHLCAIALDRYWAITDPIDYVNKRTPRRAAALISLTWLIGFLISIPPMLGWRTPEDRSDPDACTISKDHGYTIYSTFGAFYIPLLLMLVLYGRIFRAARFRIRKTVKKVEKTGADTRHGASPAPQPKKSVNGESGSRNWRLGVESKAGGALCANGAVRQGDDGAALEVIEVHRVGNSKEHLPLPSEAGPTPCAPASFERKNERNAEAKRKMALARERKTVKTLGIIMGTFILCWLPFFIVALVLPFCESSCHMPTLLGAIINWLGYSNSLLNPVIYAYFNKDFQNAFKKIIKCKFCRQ
Chain of Transporter, Dopamine (DAT) (Q01959 whole entry): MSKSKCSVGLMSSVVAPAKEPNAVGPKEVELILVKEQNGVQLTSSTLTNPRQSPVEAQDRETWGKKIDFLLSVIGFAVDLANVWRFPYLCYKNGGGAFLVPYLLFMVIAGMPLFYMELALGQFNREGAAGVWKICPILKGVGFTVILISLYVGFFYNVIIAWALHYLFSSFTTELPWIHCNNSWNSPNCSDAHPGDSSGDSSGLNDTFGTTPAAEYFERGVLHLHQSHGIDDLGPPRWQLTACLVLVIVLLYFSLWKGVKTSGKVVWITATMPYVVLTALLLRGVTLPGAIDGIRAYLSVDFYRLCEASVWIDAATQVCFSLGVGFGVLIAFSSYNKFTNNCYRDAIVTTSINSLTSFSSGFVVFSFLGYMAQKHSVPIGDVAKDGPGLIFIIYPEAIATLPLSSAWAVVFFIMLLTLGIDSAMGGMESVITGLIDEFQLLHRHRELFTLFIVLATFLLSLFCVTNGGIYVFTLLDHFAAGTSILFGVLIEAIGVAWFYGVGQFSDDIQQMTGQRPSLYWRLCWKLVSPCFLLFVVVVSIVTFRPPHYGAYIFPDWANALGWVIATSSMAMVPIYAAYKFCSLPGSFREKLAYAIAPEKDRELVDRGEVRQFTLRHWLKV
Chain of Interleukin IL-1 R1 (P14778 18-569): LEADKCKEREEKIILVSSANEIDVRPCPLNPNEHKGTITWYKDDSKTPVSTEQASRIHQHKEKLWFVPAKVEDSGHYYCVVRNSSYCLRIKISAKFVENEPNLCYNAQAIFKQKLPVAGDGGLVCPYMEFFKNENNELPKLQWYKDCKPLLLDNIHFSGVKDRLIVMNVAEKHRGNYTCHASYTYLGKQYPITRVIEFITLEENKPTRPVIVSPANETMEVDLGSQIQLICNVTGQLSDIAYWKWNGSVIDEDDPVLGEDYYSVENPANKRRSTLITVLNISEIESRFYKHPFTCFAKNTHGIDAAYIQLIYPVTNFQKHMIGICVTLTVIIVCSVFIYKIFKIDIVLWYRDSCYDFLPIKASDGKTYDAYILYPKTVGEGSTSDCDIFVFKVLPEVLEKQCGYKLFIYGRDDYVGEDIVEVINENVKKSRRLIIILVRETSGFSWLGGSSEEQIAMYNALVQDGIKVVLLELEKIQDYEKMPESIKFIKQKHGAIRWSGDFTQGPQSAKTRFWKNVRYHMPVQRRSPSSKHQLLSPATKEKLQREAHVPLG
Chain of GABAB1A (Q9UBS5 15-961 limits assumed): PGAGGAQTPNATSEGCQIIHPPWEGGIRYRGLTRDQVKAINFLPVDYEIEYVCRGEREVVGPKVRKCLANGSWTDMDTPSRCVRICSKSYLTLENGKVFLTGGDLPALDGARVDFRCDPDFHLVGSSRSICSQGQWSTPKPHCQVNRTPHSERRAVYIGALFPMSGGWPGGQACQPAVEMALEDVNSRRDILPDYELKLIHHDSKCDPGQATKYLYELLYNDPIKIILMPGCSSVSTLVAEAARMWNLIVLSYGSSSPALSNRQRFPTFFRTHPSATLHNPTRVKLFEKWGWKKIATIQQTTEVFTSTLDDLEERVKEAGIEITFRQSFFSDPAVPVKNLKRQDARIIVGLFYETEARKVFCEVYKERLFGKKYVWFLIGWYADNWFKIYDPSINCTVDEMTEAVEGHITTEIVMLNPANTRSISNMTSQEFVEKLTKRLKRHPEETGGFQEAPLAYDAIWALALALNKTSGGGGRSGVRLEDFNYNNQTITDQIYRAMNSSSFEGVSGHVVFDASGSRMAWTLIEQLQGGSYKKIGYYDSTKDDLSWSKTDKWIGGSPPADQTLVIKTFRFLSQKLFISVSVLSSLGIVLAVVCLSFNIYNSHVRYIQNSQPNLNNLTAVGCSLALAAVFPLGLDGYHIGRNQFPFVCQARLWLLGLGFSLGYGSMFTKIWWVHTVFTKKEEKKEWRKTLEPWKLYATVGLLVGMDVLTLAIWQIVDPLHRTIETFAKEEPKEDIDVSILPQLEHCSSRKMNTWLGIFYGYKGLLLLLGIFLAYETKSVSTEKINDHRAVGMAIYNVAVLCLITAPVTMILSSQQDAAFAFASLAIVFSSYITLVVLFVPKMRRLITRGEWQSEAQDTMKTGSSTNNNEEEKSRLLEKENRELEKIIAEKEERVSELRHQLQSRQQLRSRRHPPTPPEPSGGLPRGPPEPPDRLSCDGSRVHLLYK
Chain of GABAB1A (O75899 42-941 partner): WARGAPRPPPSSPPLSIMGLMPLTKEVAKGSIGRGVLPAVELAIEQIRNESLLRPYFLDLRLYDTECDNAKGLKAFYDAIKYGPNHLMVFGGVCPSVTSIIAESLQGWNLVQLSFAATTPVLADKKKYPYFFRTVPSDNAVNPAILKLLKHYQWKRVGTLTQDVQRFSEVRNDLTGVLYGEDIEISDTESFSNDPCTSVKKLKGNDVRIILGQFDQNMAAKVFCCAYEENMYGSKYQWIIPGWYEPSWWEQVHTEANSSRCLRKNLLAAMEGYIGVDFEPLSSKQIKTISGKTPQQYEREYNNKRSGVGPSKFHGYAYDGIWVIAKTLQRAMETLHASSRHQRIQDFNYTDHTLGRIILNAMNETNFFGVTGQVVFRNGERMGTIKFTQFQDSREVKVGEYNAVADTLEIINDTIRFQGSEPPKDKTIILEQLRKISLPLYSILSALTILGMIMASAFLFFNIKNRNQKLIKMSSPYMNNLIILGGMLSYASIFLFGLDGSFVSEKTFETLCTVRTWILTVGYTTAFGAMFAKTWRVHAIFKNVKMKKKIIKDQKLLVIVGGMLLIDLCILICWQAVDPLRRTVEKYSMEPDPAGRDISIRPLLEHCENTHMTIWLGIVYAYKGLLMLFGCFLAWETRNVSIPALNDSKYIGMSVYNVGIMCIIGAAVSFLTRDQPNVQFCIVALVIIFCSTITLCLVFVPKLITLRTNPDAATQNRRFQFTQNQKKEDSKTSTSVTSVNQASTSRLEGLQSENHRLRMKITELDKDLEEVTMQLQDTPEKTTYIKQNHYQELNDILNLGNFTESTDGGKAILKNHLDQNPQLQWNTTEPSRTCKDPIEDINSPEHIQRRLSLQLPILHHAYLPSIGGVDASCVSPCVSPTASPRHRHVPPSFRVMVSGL
Chain of Tachykinin NK1 (P25103 whole entry): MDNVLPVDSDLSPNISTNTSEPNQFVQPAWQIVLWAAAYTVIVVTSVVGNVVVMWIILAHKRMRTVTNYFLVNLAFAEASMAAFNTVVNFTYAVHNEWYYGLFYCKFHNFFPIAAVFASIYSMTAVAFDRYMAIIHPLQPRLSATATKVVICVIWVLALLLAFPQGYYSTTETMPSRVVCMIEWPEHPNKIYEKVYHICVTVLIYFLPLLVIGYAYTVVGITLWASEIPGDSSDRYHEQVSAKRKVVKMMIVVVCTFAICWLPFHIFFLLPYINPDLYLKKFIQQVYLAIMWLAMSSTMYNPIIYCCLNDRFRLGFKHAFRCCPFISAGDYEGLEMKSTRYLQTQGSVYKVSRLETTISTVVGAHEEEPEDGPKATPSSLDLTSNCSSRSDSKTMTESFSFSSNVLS
Chain of CYP2D6 (P10635 whole entry, species assumed): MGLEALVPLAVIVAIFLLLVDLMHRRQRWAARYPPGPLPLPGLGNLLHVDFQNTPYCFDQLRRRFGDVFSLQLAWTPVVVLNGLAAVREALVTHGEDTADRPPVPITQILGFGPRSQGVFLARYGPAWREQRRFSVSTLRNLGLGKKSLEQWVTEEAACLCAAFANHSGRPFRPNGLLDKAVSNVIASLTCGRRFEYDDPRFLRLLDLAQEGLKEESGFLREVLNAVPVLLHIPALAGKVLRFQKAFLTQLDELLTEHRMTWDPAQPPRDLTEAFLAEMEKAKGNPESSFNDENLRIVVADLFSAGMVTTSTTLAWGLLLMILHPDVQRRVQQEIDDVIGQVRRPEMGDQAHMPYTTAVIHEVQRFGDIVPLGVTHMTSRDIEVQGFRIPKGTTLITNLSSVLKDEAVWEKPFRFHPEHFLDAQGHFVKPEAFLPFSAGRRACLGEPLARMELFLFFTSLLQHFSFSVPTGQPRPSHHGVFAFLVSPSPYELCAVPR

SMILES	inhibition at 10 µM [1] [%]	inhibition at 10 µM (Histamine H1) [%]	inhibition at 10 µM [2] [%]	% of Parent Related Material, Dog [3]	inhibition at 10 µM (Adenosine A1) [%]	inhibition at 10 µM (Histamine H3) [%]	% inhibition at 10 μM (Rolipram) [%]	% inhibition at 10 μM (Thyroid Hormone) [%]	inhibition at 10 µM (hERG potassium channel) [%]	inhibition at 10 µM [4] [%]	% inhibition at 10 μM [5] [%]	inhibition at 10 µM (Androgen (Testosterone)) [%]	inhibition at 10 µM (Interleukin IL-1 R1) [%]	inhibition at 10 µM (Opiate μ (OP3, MOP)) [%]	% of Parent Related Material, Rat [6]	inhibition at 10 µM (Adenosine A2A) [%]	inhibition at 10 µM (Bradykinin B2) [%]	inhibition at 10 µM (GABAB1A) [%]	% of Parent Related Material, Human [7]	IC50 (CYP2D6) [µM]	further results
Cc1cc(Cl)cc2sc(O[C@H]3CCN(C(=O)CCCS(=O)(=O)c4cccc(Br)c4)C[C@H]3F)nc12 [VU6047606]	-2	11	18	93.78% and > 82%	5	11	19	12	72	8	7	8	1	22	90.93% and > 82%	0	4	12	91.66% and > 82%	> 30	% inhibition at 10 μM (Phorbol Ester): 22%; inhibition at 10 µM (Bradykinin B1): -5%; inhibition at 10 µM (Neuropeptide Y Y2): 10%; inhibition at 10 µM (Glucocorticoid): 18%; % inhibition at 10 μM [8]: 93%; % inhibition at 10 μM (Imidazoline I2, Central): 9%; inhibition at 10 µM [9]: -7%; inhibition at 10 µM (Tachykinin NK1): 8%; inhibition at 10 µM [10]: 2%
O=C(c1ccc(OCc2ccc(OC(F)(F)F)cc2)cc1)N1CCN(c2ccc(C(F)(F)F)cn2)CC1 [VU6032735]	-1	14	26	> 98%	12	-16	7	4	9	-2	24	1	-7	11	> 98%	-6	-1	31	> 98%	> 30	% inhibition at 10 μM (Phorbol Ester): 12%; inhibition at 10 µM (Bradykinin B1): 4%; inhibition at 10 µM (Neuropeptide Y Y2): 3%; inhibition at 10 µM (Glucocorticoid): 10%; % inhibition at 10 μM [8]: 76%; % inhibition at 10 μM (Imidazoline I2, Central): -2%; inhibition at 10 µM [9]: -6%; inhibition at 10 µM (Tachykinin NK1): 7%; inhibition at 10 µM [10]: 5%
